The record followed here is US20020107235A1, “Glucocorticoid receptor modulators” (priority 2000, published 2002).

In assay [1] the test system is IL-8 (Interleukin-8) production in SW1353 human chondrosarcoma cells. In words: glucocorticoid inhibition of IL-1 induced IL-8 production in human chondrosarcoma cells. The format is cell-based. The settings on record: 20 ng/ml IL-1 beta, 24 hours after addition of IL-1, ELISA, read-out: IC50, inhibitor of IL-8 expression. The method, then:
(§1) This assay, the glucocorticoid inhibition of IL-1 (Interleukin-1) induced MMP-1 (Matrix Metalloproteinase-1) and IL-8 (Interleukin-8) production in human chondrosarcoma cells, is conducted as follows: SW1353 human chondrosarcoma cells (obtained from ATCC) from passage 12 through passage 19 are used in a 96 well format assay. Cells are plated at confluence into 96 well plates in DMEM (Dulbecco's Modified Eagle Medium) with 10% fetal bovine serum and incubated at 37° C., 5% CO2. After 24 hours, serum containing media is removed and replaced with 200 ul/well DMEM containing 1 mg/L insulin, 2 g/L lactalbumin hydrosylate, and 0.5 mg/L ascorbic acid and returned to incubation at 37° C., 5% CO2. […] IL-8 production is assessed using the Quantikine human IL-8 ELISA kit from R&D Systems (D8050) on samples diluted 60-fold in RD5P Calibrator Diluent, following the manufacturer's protocol. The percent of the average IL-1 control is determined for the average of each of the triplicate samples following subtraction of the average signal from untreated cells. IC50's are determined from log linear plots of the percent of control versus the concentration of inhibitor. […] MMP-1 production is assessed via the Bio-Trak MMP-1 ELISA kit from Amersham (RPN2610) on 100 ul of neat sample following the manufacturer's protocol. […]
(In general: In an ELISA, binding on a coated surface is turned into a signal by an enzyme label.)

In assay [2] the test system is MMP-1 (Matrix Metalloproteinase-1) production in SW1353 human chondrosarcoma cells. Description: glucocorticoid inhibition of IL-1 induced MMP-1 production in human chondrosarcoma cells. The format is cell-based. The settings on record: 20 ng/ml IL-1 beta, 72 hours after IL-1 addition, ELISA, read-out: IC50, inhibitor of MMP1 expression. As for the experimental part: as §1

In general, IC50 refers to the midpoint of a concentration-inhibition curve. Turning to `C[C@@H]1C[C@H]2[C@@H]3CCC4=CC(=O)C=C[C@]4(C)[C@@]3(F)[C@@H](O)C[C@]2(C)[C@@]1(O)C(=O)CO` [Dexamethasone, (11β, 16α)-9-fluoro-11,17,21-trihydroxy-16-methylpregna-1,4-diene-3,20-dione], the 50% inhibitory concentration (IC50) in assay [1] and in assay [2] was 5 nM throughout.
